The results in this text go back to the Deep4Chem optical property database.

This series can be described thus: solvent given as SMILES.
Where [1] appears, read: in O=P(c1ccccc1)(c1ccccc1)c1ccccc1Oc1ccccc1P(=O)(c1ccccc1)c1ccccc1.

“And” between values parts separate entries of the source, which are not always exact repeats. Equal values may be shown once.

`O=C1c2ccccc2-c2c(-c3ccccc3O)[nH]c(=O)n21` registered an emission maximum (in CC#N) of 480 nm, an emission maximum (in CO) of 498 nm and an emission maximum (in ClCCl) of 477 nm.

`CC(C)(C)c1ccc(-c2ccc(-c3c4c(nc5ccccc35)-c3cc5c(cc3CC4)-c3nc4ccccc4c(-c4ccc(-c6ccc(C(C)(C)C)cc6)cc4)c3CC5)cc2)cc1` showed an emission maximum (in ClC(Cl)Cl) of 388 nm.

For `CCC1=C(C)C(=O)n2c1cc1[nH]c(C(=O)OC(C)(C)C)c(C)c1c2=O`, the emission maximum reads like this: (in C1CCCCC1) 443 nm; (in CO) 505 nm; (in CS(C)=O) 483 nm; (in ClC(Cl)Cl) 453 nm; (in c1ccccc1) 443 nm.

Molecule `C1=C(c2ccccc2)C(c2ccccc2)C(c2ccccc2)=C1` registered an emission maximum (in C1CCOC1) of 385 nm.

`CC(NC(=O)OC(C)(C)C)C(=O)OCc1ccc2c3cccc4cccc(c5cccc1c52)c43` (stereo not drawn) registered an emission maximum (in CCO) of 443 nm.

For `Cc1cccc2[n+]1[B-](F)(F)n1c(c3cccc4cccc1c43)=N2`, the emission maximum was 496 nm (in C1CCOC1); 495 nm (in CC#N); 494 nm (in CCCCCC); 498 nm (in Cc1ccccc1); 521 nm (in ClCCl).

Consider `CCCCN1/C(=C\c2c(-c3ccc(N(C)C)cc3)c(=O)c2=O)C=Cc2ccccc21`, for which the emission maximum came to 428 nm (in C1CCCCC1), 435 nm (in Cc1ccccc1) and 585 nm (in ClCCl).

The molecule `CC1(C)c2ccccc2-n2c(-c3ccc(N4c5ccccc5Oc5ccccc54)cc3)nc3cccc1c32` displayed an emission maximum (in Cc1ccccc1) of 502 nm and an emission maximum under setting [1] of 485 nm.

`CC(C)(C)NC(=O)c1ccc(Br)c2ccc3c4ccc(F)cc4c4cc(F)ccc4c3c12`: under “in ClCCl”, the emission maximum was found to be 394 nm.

`c1ccc2cc3cc(-c4cc(-c5nccs5)nc(-c5nccs5)c4)ccc3cc2c1`: the emission maximum is, setting by setting: (in CC#N) 474 nm; (in CCCCCC) 376 nm; (in CO) 377 nm; (in ClC(Cl)Cl) 452 nm.

For the molecule `Cc1ccc2[nH]c(-c3ccc(-c4ccc(-c5ccc(-c6nc7cc(C)ccc7[nH]6)cc5)cc4)cc3)nc2c1`, the emission maximum (in CN(C)C=O) came to 416 nm.

`CN1C(=CC2=C([O-])C(=CC3=[N+](C)c4ccccc4C3(C)C)C2=O)C(C)(C)c2ccccc21` displayed an emission maximum (in ClC(Cl)Cl) of 643 nm.

Regarding `Cc1ccc(-c2cc(-c3ccccc3)c3c(N)nc(N4CCCC4)c(C#N)c3n2)cc1`, the emission maximum runs as follows: (in CC#N) 528 nm; (in CC(C)=O) 524 nm; (in CC(C)O) 518 nm; (in CO) 527 nm; (in ClC(Cl)Cl) 510 nm; (in ClCCl) 517 nm. Under “in c1ccccc1”, the emission maximum is given as 504 nm.

On to `CCCCc1ccc(-n2c3c(c4c2c2c(n4-c4ccc(CCCC)cc4)-c4cc(F)ccc4NB2c2ccccc2)B(c2ccccc2)Nc2ccc(F)cc2-3)cc1`, for which the emission maximum (in Cc1ccccc1) is reported as 406 nm.

On to `COc1ccc(-c2c3ccccc3c(C#Cc3ccccc3)c3cc4cc(C)sc4cc23)cc1`, for which, where the note is “in ClCCl”, the emission maximum amounted to 504 nm.

With `CN(C)c1ccc2nc3c(cc2c1)c(-c1ccccc1)nn3-c1ccccc1`, the emission maximum was 444.44 nm (in C1CCCCC1); 534.19 nm (in C1CCOC1); 561.48 nm (in CC#N); 552.79 nm (in CC(C)=O); 516 nm (in CCCCCl); 498.75 nm (in CCCCOCCCC). Also, the emission maximum (in CN(C)C=O) came to 566.89 nm.

Where the note is “in CC1CCCO1”, `COc1c(Br)c2cc(=O)oc3ccc4cccc1c4c32` gave an emission maximum of 487 nm.

`CCCCCCOc1ccc2c(c1)-c1cc3c(cc1[Si]2(C)C)-c1ccccc1[Si]3(C)C` had an emission maximum (in ClCCl) of 387 nm.

For `N#Cc1ccc(N)c(/C=C/C(F)(F)F)c1`, for the setting “in C1CCOC1”, the emission maximum came to 409 nm.

On to `Nc1cccc2ncccc12`, for which the emission maximum reads like this: (in CC#N) 480 nm; (in O) 534 nm.

Regarding `CCCCN(CCCC)c1ccc(C#Cc2cc(C#Cc3ccc(N(CCCC)CCCC)cc3)c(C#Cc3ccc(C(F)(F)F)cc3)cc2C#Cc2ccc(C(F)(F)F)cc2)cc1`, the emission maximum came to 541 nm (in ClCCl) and 493 nm (in c1ccccc1).

Molecule `COc1ccc(C2=C(c3ccc(OC)cc3)[Si](c3ccccc3)(c3ccccc3)c3ccccc32)cc1` registered an emission maximum (in C1CCOC1) of 457 nm.

As for `COc1c(-c2ccc(N(C)C)cc2)oc2ccccc2c1=O`, the emission maximum reads like this: (in C1CCCCC1) 413.89 nm; (in CC#N) 490.48 nm; (in CCOC(C)=O) 468.65 nm.

On to `CC(C)(C)c1ccc2c(c1)c1cc(C(C)(C)C)ccc1n2-c1ccc(C#Cc2ccc3c4ccc(C#Cc5ccc(C=C(C#N)C#N)cc5)cc4n(-c4ccc(C(F)(F)F)cc4)c3c2)cc1`, for which the emission maximum (in ClCCl) is 454 nm.

In the case of `O=C(O)CCCCCn1/c(=C/C=C/C2=[N+](CCCCCC(=O)O)c3cccc4cccc2c34)c2cccc3cccc1c32`, the emission maximum (in CO) is 773 nm.

Under “in C1CCOC1”, `c1ccc(-c2cnc3nn4ccccc4c3n2)cc1` registered an emission maximum of 449 nm.

Where the note is “in CO”, `CC1=CC(/C=C/c2ccc(OCCCN=[N+]=[N-])cc2)=[N+]2C1=C(c1ccccc1)c1c(C)cc(C)n1[B-]2(F)F` had an emission maximum of 578 nm.

`O=C([O-])c1ccc(C2=c3cc4c5c(c3Oc3c2cc2c6c3CCCN6CCC2)CCC[N+]=5CCC4)c(C(=O)[O-])c1` showed an emission maximum (in CCO) of 601 nm and an emission maximum (in O) of 603 nm.

Turning to `O=c1oc2ccccc2nc1-c1ccc(Cl)cc1`, the emission maximum (in c1ccccc1) is reported as 440 nm.

Take `CCN(CC)c1ccc2cc(-c3nc4ccccc4s3)c(=O)oc2c1`: the emission maximum by setting is: (in C1CCCCC1) 462 nm; (in CC1CCCCC1) 462 nm; (in CC#N) 501 nm and 506.6 nm; (in CCC(C)CC) 461.6 nm; (in CCCCCC) 463 nm; (in CCO) 505 nm. The same molecule returned an emission maximum (in CCOC(C)=O) of 492.8 nm.

Consider `C=Cc1ccc(-c2ccc(-c3nnc(-c4ccc(-c5nnc(-c6ccc(-c7ccc(C=C)cc7)s6)o5)cc4)o3)s2)cc1`, for which the emission maximum came out at 397 nm (in C1COCCO1); 400 nm (in CC#N); 407 nm (in CC(=O)N(C)C); 399 nm (in CCCCCCCCCCO); 400 nm (in CCCCCCCCO); 399 nm (in CCCCCCO). Besides, the emission maximum is, setting by setting: (in CCCCO) 400 nm; (in CCO) 400 nm; (in CS(C)=O) 423 nm; (in Cc1ccccc1) 399 nm; (in ClC(Cl)Cl) 398 nm.

`CC[N+]1(CC)CN2C(=N1)C(C(=O)O)=Cc1c2ccc2ccccc12` registered an emission maximum (in O) of 487 nm.

The molecule `Cc1ccc2nc3cc4c(cc3c(-c3ccccc3)c2c1)[Si](C)(C)O[Si]4(C)C` had an emission maximum (in ClCCl) of 504 nm.

On to `O=Cc1ccc(-c2ccc3c(c2)C(=O)c2cc(-c4ccc(C=O)cc4)ccc2-3)cc1`, for which the emission maximum (in C1CCOC1) is 371 nm.

On to `C=CCOC(=O)C(C#N)=C1C=C(/C=C/c2ccc(N(C)C)cc2)OC(/C=C/c2ccc(N(C)C)cc2)=C1`, for which the emission maximum is 595 nm (in C1CCOC1); 564 nm (in C1COCCO1); 624 nm (in CC#N); 616 nm (in CN(C)C=O); 556 nm (in Cc1ccccc1); 585 nm (in ClC(Cl)Cl). The emission maximum is on record as 614 nm (in ClCCCl) and 601 nm (in ClCCl).

Take `F[B-]1(F)n2cccc2C(c2ccccc2)=C2C=CC(c3cccc(OC4=[N+]5C(=C(c6ccccc6)c6cc(Br)c(Br)n6[B-]5(F)F)C=C4Br)c3)=[N+]21`: under “in ClC(Cl)Cl”, the emission maximum is recorded as 568 nm.

`CCCCCCN1C(=O)c2cccc3c(-c4ccc(-c5cc(-c6cccc7ccccc67)nn5-c5ccccc5)s4)ccc(c23)C1=O` yielded an emission maximum (in ClCCl) of 515 nm.

On to `O=C(O)c1ccc(-c2nc(-c3ccccc3)c3c4ccccc4ccn23)cc1`, for which the emission maximum (in CC#N) is on record as 473 nm.

The molecule `c1ccc(N(c2ccccc2)c2ccc(-c3ncnc4ccccc34)cc2)cc1` had an emission maximum (in C1CCCCC1) of 445 nm; an emission maximum (in C1CCOC1) of 508 nm; an emission maximum (in CC#N) of 559 nm; an emission maximum (in CS(C)=O) of 563 nm; an emission maximum (in ClCCl) of 528 nm.

`CCc1ccc(-n2c3ccccc3c3cc4c(cc32)c2ccccc2n4-c2ccc(CC)s2)s1` registered an emission maximum (in ClC(Cl)Cl) of 405 nm.

With `O=C([O-])c1ccccc1-c1c2cc(Br)c(=O)c(Br)c-2oc2c(Br)c([O-])c(Br)cc12`, the emission maximum by setting is: (in CC(C)O) 551 nm; (in CCO) 550 nm; (in CO) 542 nm; (in O) 538 nm.

For the molecule `c1ccc(-c2nnc(-c3ccc(-n4c5ccccc5c5ccccc54)cc3)o2)cc1`, the emission maximum runs as follows: (in CCO) 440 nm; (in Cc1ccccc1) 387 nm.

Turning to `CC(C)c1cccc(C(C)C)c1N1C(=O)c2ccc3c(-c4ccccc4)c4c5ccc6c7c(ccc(c(-c8ccccc8)c4c4ccc(c2c34)C1=O)c75)C(=O)N(c1c(C(C)C)cccc1C(C)C)C6=O`, under “in ClCCl”, the emission maximum is reported as 702 nm.

`c1ccc(-c2nc(-c3ccccc3)nc(-c3ccc(N4c5ccccc5C(c5ccccc5)(c5ccccc5)c5ccccc54)cc3)n2)cc1` yielded an emission maximum under setting [1] of 472.98 nm.

As to `CCC1=C(C)C2=Cc3c4ccccc4c4n3[B-](c3ccc5ccc6cccc7ccc3c5c67)(Oc3ccccc3-4)[N+]2=C1C` (stereo not drawn), the emission maximum amounted to 635 nm (in CC#N), 638 nm (in CCCCCC), 642 nm (in Cc1ccccc1) and 640 nm (in ClCCl).

Molecule `COc1ccc(-c2nc(-c3cc(Cl)sc3C)c(-c3cc(Cl)sc3C)[nH]2)cc1` registered an emission maximum (in CC#N) of 489 nm.
